Results from ChEMBL document CHEMBL4725412, “Augmenting the Activity of Macrolide Adjuvants against Acinetobacter baumannii” (2020).
Active and inactive are the calls of the source. The rule behind the calls is not given here.

What was measured:
[1] = tested on: Acinetobacter baumannii; experiment: Antibacterial activity against Acinetobacter baumannii AB5075 assessed as reduction in microbial growth incubated for 16 hrs by broth microdilution method; format: functional
[2] = tested on: Acinetobacter baumannii; experiment: Antibacterial activity against Acinetobacter baumannii AB5075 assessed as reduction in microbial growth after 9 days by broth microdilution method; format: functional; settings: AB5075, 216 h, time 9 day
[3] = tested on: Acinetobacter baumannii; experiment: Antibacterial activity against Acinetobacter baumannii AB5075 assessed as reduction in microbial growth after 6 days by broth microdilution method; format: functional; settings: AB5075, 144 h, time 6 day
[4] = tested on: Acinetobacter baumannii; experiment: Antibacterial activity against Acinetobacter baumannii AB5075 assessed as reduction in microbial growth after 2 days by broth microdilution method; format: functional; settings: AB5075, 48 h, time 2 day
[5] = tested on: Acinetobacter baumannii; experiment: Potentiation of clarithromycin-induced antibacterial activity against Acinetobacter baumannii AB5075 assessed as fold reduction in clarithromycin MIC at 30 uM incubated for 16 hrs in presence of clarithromycin by broth microdilution method; format: functional
[6] = tested on: Acinetobacter baumannii; experiment: Potentiation of clarithromycin-induced antibacterial activity against Acinetobacter baumannii AB5075 assessed as clarithromycin MIC at 20 uM incubated for 16 hrs by broth microdilution method (reference value: […] ug/ml); format: functional
[7] = tested on: Acinetobacter baumannii; experiment: Potentiation of clarithromycin-induced antibacterial activity against Acinetobacter baumannii AB5075 assessed as clarithromycin MIC at 10 uM incubated for 16 hrs by broth microdilution method (reference value: […] ug/ml); format: functional
[8] = tested on: Acinetobacter baumannii; experiment: Potentiation of clarithromycin-induced antibacterial activity against Acinetobacter baumannii AB5075 assessed as clarithromycin MIC at […] incubated for 16 hrs by broth microdilution method (reference value: […] ug/ml); format: functional; settings: dose 30 µM
[9] = tested on: Acinetobacter baumannii; experiment: Potentiation of clarithromycin-induced antibacterial activity against Acinetobacter baumannii AB5075 assessed as fold reduction in clarithromycin MIC at 10 uM incubated for 16 hrs in presence of clarithromycin by broth microdilution method; format: functional
[10] = tested on: Acinetobacter baumannii; experiment: Potentiation of clarithromycin-induced antibacterial activity against Acinetobacter baumannii AB5075 assessed as fold reduction in clarithromycin MIC at 20 uM incubated for 16 hrs in presence of clarithromycin by broth microdilution method; format: functional
[11] = tested on: Acinetobacter baumannii; experiment: Potentiation of Colistin-induced Acinetobacter baumannii AB5075 assessed as Colistin MIC at 30 uM by broth microdilution method; format: functional, organism-based
[12] = tested on: Acinetobacter baumannii; experiment: Potentiation of clarithromycin-induced antibacterial activity against Acinetobacter baumannii AB5075 assessed as clarithromycin MIC at 5 uM incubated for 16 hrs by broth microdilution method (reference value: […] ug/ml); format: functional
[13] = tested on: Acinetobacter baumannii; experiment: Potentiation of clarithromycin-induced antibacterial activity against Acinetobacter baumannii AB5075 assessed as clarithromycin MIC at 7.5 uM incubated for 16 hrs by broth microdilution method (reference value: […] ug/ml); format: functional
[14] = tested on: Acinetobacter baumannii; experiment: Potentiation of clarithromycin-induced antibacterial activity against Acinetobacter baumannii AB5075 assessed as fold reduction in clarithromycin MIC at 7.5 uM incubated for 16 hrs in presence of clarithromycin broth microdilution method; format: functional
[15] = tested on: Acinetobacter baumannii; experiment: Potentiation of clarithromycin-induced antibacterial activity against Acinetobacter baumannii AB5075 assessed as fold reduction in clarithromycin MIC at 5 uM incubated for 16 hrs in presence of clarithromycin by broth microdilution method; format: functional

Row | SMILES | MIC [1] | MIC [6] | MIC [7] | fold change (FC) [5] | also measured
1 | CC[C@H]1OC(=O)[C@H](C)[C@@H](O[C@H]2C[C@@](C)(OC)[C@@H](O)[C@H](C)O2)[C@H](C)[C@@H](O[C@@H]2O[C@H](C)C[C@H](N(C)C)[C@H]2O)[C@](C)(OC)C[C@@H](C)C(=O)[C@H](C)[C@@H](O)[C@]1(C)O [CLARITHROMYCIN] | – | – | – | – | MIC [2]: 512 µg/mL; MIC [3]: 512 µg/mL; MIC [4]: ≥ 128 µg/mL
2 | Cl.Nc1nc(-c2ccc(NC(=O)c3cc(Cl)cc(Cl)c3)cc2Cl)c[nH]1 | > 200 µM | 0.5 µg/mL | 8 µg/mL | 64 | MIC [8]: 0.5 µg/mL; fold change (FC) [9]: 4; fold change (FC) [10]: 64
3 | Nc1ncc(-c2ccc(NC(=O)c3cc(I)c(I)c(I)c3)cc2)[nH]1 | ≥ 200 µM | – | – | – | –
4 | Cl.Nc1nc(-c2ccc(NC(=O)c3cc(Cl)cc(Cl)c3)c(Cl)c2)c[nH]1 | > 200 µM | – | – | 2 | MIC [8]: 8 µg/mL
5 | Cl.Nc1nc(-c2ccc(NC(=O)c3cc(Br)cc(Br)c3)cc2F)c[nH]1 | > 200 µM | 8 µg/mL | 16 µg/mL | 16 | MIC [8]: 2 µg/mL; fold change (FC) [9]: 2; fold change (FC) [10]: 4
6 | Nc1ncc(-c2ccc(NC(=O)c3ccc(I)cc3)cc2)[nH]1 | ≥ 200 µM | – | – | – | –
7 | Nc1ncc(-c2ccc(NC(=O)c3cccc(I)c3)cc2)[nH]1 | ≥ 200 µM | – | – | – | –
8 | Nc1ncc(-c2ccc(NC(=O)c3ccc(Br)cc3F)cc2)[nH]1 | ≥ 200 µM | 16 µM | 32 µM | – | Activity [11]: inactive
9 | Cl.Nc1nc(-c2ccc(NC(=O)c3cc(Cl)cc(Cl)c3)c(F)c2)c[nH]1 | > 200 µM | – | – | 4 | MIC [8]: 16 µg/mL
10 | Nc1nc(-c2ccc(NC(=O)c3ccc(F)cc3)cc2)c[nH]1 | ≥ 200 µM | – | – | – | –
11 | Nc1nc(-c2ccc(NC(=O)c3c(F)c(F)c(F)c(F)c3F)cc2)c[nH]1 | ≥ 200 µM | – | – | – | –
12 | Cc1cc(C)cc(C(=O)Nc2ccc(-c3c[nH]c(N)n3)cc2)c1.Cl | ≥ 200 µM | – | – | – | MIC [8]: 2 µg/mL; Activity [11]: inactive

Now from value to compound, other results behind:

Row | MIC [1] | MIC [6] | MIC [7] | SMILES | fold change (FC) [5] | also measured
13 | ≥ 200 µM | – | – | Nc1nc(-c2ccc(NC(=O)c3cccc(Br)c3)cc2)c[nH]1 | – | –
14 | ≥ 200 µM | – | – | Cl.Nc1ncc(-c2ccc(NC(=O)c3cccc(Cl)c3Cl)cc2)[nH]1 | 4 | –
15 | ≥ 200 µM | 0.25 µM | 0.25 µM | Nc1nc(-c2ccc(NC(=O)c3cc(Cl)c(Br)c(Cl)c3)cc2)c[nH]1 | – | –
16 | 100 µM | 0.5 µM | 4 µM | Cl.Nc1ncc(-c2ccc(NC(=O)c3ccc(Cl)c(Cl)c3)cc2)[nH]1 | 64 | –
17 | 25 µM | – | – | Cl.Nc1nc(-c2ccc(NC(=O)Nc3cc(Cl)cc(Cl)c3)cc2)c[nH]1 | – | MIC [12]: 8 µg/mL; MIC [13]: 0.5 µg/mL; fold change (FC) [14]: 64; fold change (FC) [15]: 4
18 | 100 µM | – | 2 µM | Nc1nc(-c2ccc(NC(=O)c3ccc(Cl)c(C(F)(F)F)c3)cc2)c[nH]1 | – | –
19 | 100 µM | 8 µM | 32 µM | Nc1nc(-c2ccc(NC(=O)c3cc(F)c(F)c(F)c3)cc2)c[nH]1 | – | –
20 | 25 µM | – | – | Cc1ccc(C(=O)Nc2ccc(-c3c[nH]c(N)n3)cc2)cc1Cl | – | MIC [12]: 16 µM
